Assay results as given in patent US20260055097A9, “NRF2 PROTEIN DEGRADERS” (Ganymede Oncology, Inc., priority 2022, published 2026).

Columns and labels:
Format in all cases: cell-based
Nrf2 [1] = target: T1, Nrf2 (Homo sapiens, UniProt Q16236); test: Protein degradation assay in huH1 cells by Western blot; design: tested for protein degradation in huH1 cells; host or cells: huH1 (Huh1) human hepatoma cells
T1 sequence (Q16236 1-605): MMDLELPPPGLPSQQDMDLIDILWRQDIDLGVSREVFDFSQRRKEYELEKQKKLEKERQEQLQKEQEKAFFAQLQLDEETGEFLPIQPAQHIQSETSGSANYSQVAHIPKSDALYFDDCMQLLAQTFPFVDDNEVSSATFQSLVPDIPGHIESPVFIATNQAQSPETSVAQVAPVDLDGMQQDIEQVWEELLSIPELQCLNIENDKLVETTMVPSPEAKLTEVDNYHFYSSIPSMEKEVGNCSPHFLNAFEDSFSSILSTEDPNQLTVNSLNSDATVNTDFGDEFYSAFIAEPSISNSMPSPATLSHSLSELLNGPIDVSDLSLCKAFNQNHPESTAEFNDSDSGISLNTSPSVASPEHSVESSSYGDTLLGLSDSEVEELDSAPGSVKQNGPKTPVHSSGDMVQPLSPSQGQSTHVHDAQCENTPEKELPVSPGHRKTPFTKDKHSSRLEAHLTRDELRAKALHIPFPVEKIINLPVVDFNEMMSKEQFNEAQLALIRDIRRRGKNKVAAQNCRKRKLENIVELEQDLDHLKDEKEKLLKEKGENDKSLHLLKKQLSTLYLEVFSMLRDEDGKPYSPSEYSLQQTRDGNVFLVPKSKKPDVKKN
Description: Representative Compounds of the Disclosure were tested for protein degradation in huH1 cells (Vendor: JCRB: Cat #JCRB0199; Description: Human hepatoma) by Western blot analysis according to the following general protocol.
Day 0: Plated the Huh1 cells into 10-cm dishes (1.5×10^6/dish)
Day 1: Treated the cells with compounds at five concentrations, e.g., 0.01 μM, 0.04 μM, 0.11 μM, 0.33 μM and 1 μM; or 0.4 μM, 1.1 μM, 3.3 μM, 10 μM, and 30 μM.
Day 4: Harvested the cell pellets, spilt 1/3 of the pellet to extract RNA by Nucleospin RNA plus kit and measure Nrf2 and GPX2 by RT-PCR, the remaining 2/3 of the pellet to run Western blot analysis.
• a) Cell samples were lysed with lysis buffer (1×Cell lysis buffer added Protease inhibitor and phosphatase inhibitor) on ice for 5˜10 min and spun at 15,000 rpm in an Eppendorf microfuge for 15 min at 4° C. • b) The protein supernatant was collected in a new 1.5 ml tube and the protein concentrations were determined by the Pierce BCA kit (Thermo #23225). • c) Mixed protein sample with 5×SDS-PAGE loading buffer. • d) Boiled for 5 min. • e) Cooled at RT or on ice for 5 min. • f) Flash spun to bring down condensation prior to loading gel.
• a) After flash spinning the samples, 20 μg protein were loaded into the wells. • b) Using SDS-PAGE running buffer. • c) Run with Constant Voltage (70 V) for 1.5-2 hr. Membrane transfer • a) Assembled “sandwich” for Invitrogen iBlot. • b) Transferred for 9 min using P0 program. • c) Immersed membrane in Odyssey blocking buffer or 5% BSA for at least 1 hr.
• a) Incubated with 1st Antibody 1:500 diluted in blocking buffer overnight at 4° C. • b) Washed 4×15 min with 0.05-0.1% Tween 20 in TBS. • c) Incubated with secondary antibody 1:10K diluted in blocking buffer for at least 1 hr at RT. • d) Washed 3×15 min with 0.05-0.1% Tween 20 in TBS. • e) Detected with ODYSSEY (Li—COR) The results are provided in Table 5.

A549 = test: Cancer cell viability, A549 (CellTiter-Glo); conditions: Homo sapiens, 72 h, A549 cells, 3 days, read-out: Cellular IC50 (μM) A549
Procedure, shortened: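 A549 and/or LK-2 lung carcinoma cells seeded overnight (20 K/mL A549; 35 K/mL LK-2), then exposed to compound for 3 days. Viability read as CellTiter-Glo luminescence after 15 min lysis; data fitted to curves.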

LK-2 = test: Cancer cell viability, LK-2 (CellTiter-Glo); conditions: Homo sapiens, LK-2, 72 h, LK-2 cells, 3 days, read-out: Cellular IC50 (μM) LK-2
Procedure, shortened: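 A549 and LK-2 cells were seeded overnight at 20 K/mL and 35 K/mL respectively. They were then exposed for 3 days to nine three-fold dilutions, typically from 30 µM final. Viability was read as CellTiter-Glo luminescence after a 15 min lysis.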

Nrf2 [2] = target: T1, Nrf2; test: Nrf2 degradation in A549 HiBiT-Nrf2 cells, Nano-Glo HiBiT lytic detection (HiBiT readout); design: host or cells: A549 HiBiT-Nrf2 cells (engineered line bought from Promega)
Procedure, shortened: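 A549 HiBiT-Nrf2 cells seeded at 5,000 cells/well in Ham's F-12 with 10% FBS, then treated next day for 6 h and 20 h at 37 °C, 5% CO2. Nrf2 degradation read by Nano-Glo HiBiT lytic luminescence after 30 min at room temperature; staurosporine served as control.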

[3] = X marks the class 0.1-1 μM, read-out: DC50 huHI1 cells 0.1-1 μM
[4] = X marks the class >10 μM, read-out: DC50 huHI1 cells >10 μM
[5] = 6 h, read-out: DC50 (nM) at 6 h
[6] = 20 h, read-out: DC50 (nM) at 20 h

Row | Compound | IC50 (A549) [µM] | IC50 (LK-2) [µM] | DC50 (Nrf2 [1]; [4]) [nM] | DC50 (Nrf2 [2]; [5]) [nM] | DC50 (Nrf2 [2]; [6]) [nM] | further results
1 | Cc1ccccc1C(=O)N1CCc2cc(-c3nc(NC(=O)Cc4cccc(OCCOCCNc5cccc6c5C(=O)N(C5CCC(=O)NC5=O)C6=O)c4)sc3C)ccc21 (stereo not shown) [Cpd. No. 1, 2-(3-(2-(2-((2-(2,6-dioxopiperidin-3-yl)-1,3-dioxoisoindolin-4-yl)amino)ethoxy)ethoxy)phenyl)-N-(5-methyl-4-(1-(2-methylbenzoyl)indolin-5-yl)thiazol-2-yl)acetamide] | 0.1 | 0.04 |  |  |  | DC50 (Nrf2 [1]; [3]): 100 to 1000 nM
2 | Cc1ccccc1C(=O)N1CCc2cc(-c3nc(NC(=O)Cc4cccc(OCCOCCOCCNc5cccc6c5C(=O)N(C5CCC(=O)NC5=O)C6=O)c4)sc3C)ccc21 (stereo not shown) [Cpd. No. 2, 2-(3-(2-(2-(2-((2-(2,6-dioxopiperidin-3-yl)-1,3-dioxoisoindolin-4-yl)amino)ethoxy)ethoxy)ethoxy)phenyl)-N-(5-methyl-4-(1-(2-methylbenzoyl)indolin-5-yl)thiazol-2-yl)acetamide] | > 30 |  | > 10000 |  |  | 
3 | Cc1ccccc1C(=O)N1CCc2cc(-c3nc(NC(=O)Cc4cccc(OCCOCCOCCOCCOCCOCCNc5cccc6c5C(=O)N(C5CCC(=O)NC5=O)C6=O)c4)sc3C)ccc21 (stereo not shown) [Cpd. No. 5, 2-(3-((17-((2-(2,6-dioxopiperidin-3-yl)-1,3-dioxoisoindolin-4-yl)amino)-3,6,9,12,15-pentaoxaheptadecyl)oxy)phenyl)-N-(5-methyl-4-(1-(2-methylbenzoyl)indolin-5-yl)thiazol-2-yl)acetamide] |  |  | > 10000 |  |  | 
4 | Cc1ccccc1C(=O)N1CCc2cc(-c3nc(NC(=O)Cc4cccc(OCCOCCOCCOc5cccc6c5C(=O)N(C5CCC(=O)NC5=O)C6=O)c4)sc3C)ccc21 (stereo not shown) [Cpd. No. 7, 2-(3-(2-(2-(2-((2-(2,6-dioxopiperidin-3-yl)-1,3-dioxoisoindolin-4-yl)oxy)ethoxy)ethoxy)ethoxy)phenyl)-N-(5-methyl-4-(1-(2-methylbenzoyl)indolin-5-yl)thiazol-2-yl)acetamide] |  |  |  |  |  | DC50 (Nrf2 [1]; X marks the class <100 nM, read-out: DC50 huHI1 cells <100 nM): < 100 nM
5 | Cc1ccccc1C(=O)N1CCc2cc(-c3nc(NC(=O)Cc4cccc(OCCOCCOCCOCCOc5ccc6c(c5)C(=O)N(C5CCC(=O)NC5=O)C6=O)c4)sc3C)ccc21 (stereo not shown) [Cpd. No. 13, 2-(3-(2-(2-(2-(2-((2-(2,6-dioxopiperidin-3-yl)-1,3-dioxoisoindolin-5-yl)oxy)ethoxy)ethoxy)ethoxy)ethoxy)phenyl)-N-(5-methyl-4-(1-(2-methylbenzoyl)indolin-5-yl)thiazol-2-yl)acetamide] |  |  |  |  |  | DC50 (Nrf2 [1]; [3]): 100 to 1000 nM
6 | Cc1sc(NC(=O)Cc2ccc(F)c(OCCOCCNc3cccc4c3C(=O)N(C3CCC(=O)NC3=O)C4=O)c2)nc1-c1ccc2c(c1)CCN2C(=O)C1CC1 (stereo not shown) [Cpd. No. 36, N-(4-(1-(cyclopropanecarbonyl)indolin-5-yl)-5-methylthiazol-2-yl)-2-(3-(2-(2-((2-(2,6-dioxopiperidin-3-yl)-1,3-dioxoisoindolin-4-yl)amino)ethoxy)ethoxy)-4-fluorophenyl)acetamide] | 0.06 | 0.03 |  | < 300 | < 300 | 
7 | Cc1sc(NC(=O)Cc2ccc(F)c(OCCOCCNc3cccc4c3C(=O)N(C3CCC(=O)NC3=O)C4=O)c2)nc1-c1ccc2c(c1)CCN2C(=O)c1cncn1C (stereo not shown) [Cpd. No. 37, 2-(3-(2-(2-((2-(2,6-dioxopiperidin-3-yl)-1,3-dioxoisoindolin-4-yl)amino)ethoxy)ethoxy)-4-fluorophenyl)-N-(5-methyl-4-(1-(1-methyl-1H-imidazole-5-carbonyl)indolin-5-yl)thiazol-2-yl)acetamide] | 0.04 | 0.01 |  | < 300 | < 300 | 
8 | Cc1sc(NC(=O)Cc2cccc(OCCCCCNc3cccc4c3C(=O)N(C3CCC(=O)NC3=O)C4=O)c2)nc1-c1ccc2c(c1)CCN2C(=O)C1CC1 (stereo not shown) [Cpd. No. 40, N-(4-(1-(cyclopropanecarbonyl)indolin-5-yl)-5-methylthiazol-2-yl)-2-(3-((5-((2-(2,6-dioxopiperidin-3-yl)-1,3-dioxoisoindolin-4-yl)amino)pentyl)oxy)phenyl)acetamide] | 0.11 | 0.08 |  | < 300 | < 300 | 

Continued, in another order:

Row | IC50 (A549) [µM] | IC50 (LK-2) [µM] | DC50 (Nrf2 [1]; [4]) [nM] | DC50 (Nrf2 [2]; [5]) [nM] | DC50 (Nrf2 [2]; [6]) [nM] | Compound | further results
9 |  |  | > 10000 |  |  | Cc1ccccc1C(=O)N1CCc2cc(-c3nc(NC(=O)Cc4cccc(OCCOCCOCCOCCNc5cccc6c5C(=O)N(C5CCC(=O)NC5=O)C6=O)c4)sc3C)ccc21 (stereo not shown) [Cpd. No. 3, 2-(3-(2-(2-(2-(2-((2-(2,6-dioxopiperidin-3-yl)-1,3-dioxoisoindolin-4-yl)amino)ethoxy)ethoxy)ethoxy)ethoxy)phenyl)-N-(5-methyl-4-(1-(2-methylbenzoyl)indolin-5-yl)thiazol-2-yl)acetamide] | 
10 |  |  | > 10000 |  |  | Cc1ccccc1C(=O)N1CCc2cc(-c3nc(NC(=O)Cc4cccc(OCCOCCOCCOCCOCCNc5cccc6c5C(=O)N(C5CCC(=O)NC5=O)C6=O)c4)sc3C)ccc21 (stereo not shown) [Cpd. No. 4, 2-(3-((14-((2-(2,6-dioxopiperidin-3-yl)-1,3-dioxoisoindolin-4-yl)amino)-3,6,9,12-tetraoxatetradecyl)oxy)phenyl)-N-(5-methyl-4-(1-(2-methylbenzoyl)indolin-5-yl)thiazol-2-yl)acetamide] | 
11 |  |  | > 10000 |  |  | Cc1ccccc1C(=O)N1CCc2cc(-c3nc(NC(=O)Cc4cccc(OCCOCCOCCOCCOc5cccc6c5C(=O)N(C5CCC(=O)NC5=O)C6=O)c4)sc3C)ccc21 (stereo not shown) [Cpd. No. 8, 2-(3-(2-(2-(2-(2-((2-(2,6-dioxopiperidin-3-yl)-1,3-dioxoisoindolin-4-yl)oxy)ethoxy)ethoxy)ethoxy)ethoxy)phenyl)-N-(5-methyl-4-(1-(2-methylbenzoyl)indolin-5-yl)thiazol-2-yl)acetamide] | 
12 | ~30 | 0.3 |  | > 3000 | > 3000 | Cc1ccccc1C(=O)N1CCc2cc(-c3nc(NC(=O)Cc4cccc(OCCOCCOc5cccc6c5C(=O)N(C5CCC(=O)NC5=O)C6=O)c4)sc3C)ccc21 (stereo not shown) [Cpd. No. 12, 2-(3-(2-(2-((2-(2,6-dioxopiperidin-3-yl)-1,3-dioxoisoindolin-4-yl)oxy)ethoxy)ethoxy)phenyl)-N-(5-methyl-4-(1-(2-methylbenzoyl)indolin-5-yl)thiazol-2-yl)acetamide] | DC50 (Nrf2 [1]; [3]): 100 to 1000 nM
